ChEMBL document CHEMBL1145654, “Phototoxic and Insecticidal Activities of Chromenes and Benzofurans from Encelia” (J Nat Prod, 1983)
Calls of active or inactive are those of the source. The calls are words filed in the database; no cut-off is given here.

Key:
Assay type in all cases: functional, organism-based
Bacillus subtilis = assay: Phototoxicity in 2 hrs UV irradiated Bacillus subtilis measured after 24 hrs
Staphylococcus = assay: Phototoxicity in 2 hrs UV irradiated Staphylococcus albus measured after 24 hrs
Pseudomonas fluorescens = assay: Phototoxicity in 2 hrs UV irradiated Pseudomonas fluorescens measured after 24 hrs
Candida albicans = assay: Phototoxicity in 2 hrs UV irradiated Candida albicans measured after 24 hrs
Escherichia coli = assay: Phototoxicity in 2 hrs UV irradiated Escherichia coli measured after 24 hrs
Saccharomyces cerevisiae = assay: Phototoxicity in 2 hrs UV irradiated Saccharomyces cerevisiae measured after 24 hrs
Oncopeltus fasciatus [1] = assay: Antijuvenile hormone activity in first instar Oncopeltus fasciatus larvae at 5 mg to 100 ug/petri dish
Oncopeltus fasciatus [2] = assay: Insecticidal activity in first instar Oncopeltus fasciatus larvae at 1.2 mg/petri dish after 3 to 4 days
Oncopeltus fasciatus [3] = assay: Insecticidal activity in first instar Oncopeltus fasciatus larvae at 5 mg/petri dish

| Compound | Activity (Bacillus subtilis) | Activity (Staphylococcus) | Activity (Pseudomonas fluorescens) | Activity (Candida albicans) | Activity (Escherichia coli) | Activity (Saccharomyces cerevisiae) | Activity (Oncopeltus fasciatus [1]) | Activity (Oncopeltus fasciatus [2]) | Activity (Oncopeltus fasciatus [3]) |
| --- | --- | --- | --- | --- | --- | --- | --- | --- | --- |
| COc1c2occc2cc2ccc(=O)oc12 | Active | Active | inactive | Active | Active | Active | – | – | – |
| C=C(C)c1cc2cc(C(C)=O)c(OC)cc2o1 | Active | inactive | Active | Active | inactive | Active | – | – | – |
| COc1cc2c(cc1C(C)=O)C=CC(C)(C)O2 | Active | inactive | inactive | Active | inactive | Active | inactive | Active | – |
| C=C(C)c1cc2cc(C(C)=O)c(O)cc2o1 | inactive | inactive | inactive | inactive | inactive | inactive | inactive | – | – |
| COc1cc2c(cc1OC)OC(C)(C)C=C2 | inactive | inactive | inactive | inactive | inactive | inactive | inactive | – | – |
| CC(=O)c1cc2c(cc1O)OC(C)(C)C=C2 | Active | inactive | inactive | Active | inactive | Active | inactive | – | Active |
| COc1cc2c(cc1[C@](C)(O)CC(C)c1cc3cc(C(C)=O)c(O)cc3o1)C=CC(C)(C)O2 (stereo not given in full) | inactive | inactive | inactive | inactive | inactive | inactive | – | – | – |
| COc1ccc2c(c1)OC(C)(C)C=C2 | inactive | inactive | inactive | inactive | inactive | inactive | inactive | – | – |
